The values below come from ChEMBL document CHEMBL1147702, “N-Benzylbenzamides: a new class of potent tyrosinase inhibitors” (Bioorg Med Chem Lett, 2006).

In this test the target is T1, Tyrosinase (Agaricus bisporus, UniProt O42713).
T1 sequence (O42713 whole entry): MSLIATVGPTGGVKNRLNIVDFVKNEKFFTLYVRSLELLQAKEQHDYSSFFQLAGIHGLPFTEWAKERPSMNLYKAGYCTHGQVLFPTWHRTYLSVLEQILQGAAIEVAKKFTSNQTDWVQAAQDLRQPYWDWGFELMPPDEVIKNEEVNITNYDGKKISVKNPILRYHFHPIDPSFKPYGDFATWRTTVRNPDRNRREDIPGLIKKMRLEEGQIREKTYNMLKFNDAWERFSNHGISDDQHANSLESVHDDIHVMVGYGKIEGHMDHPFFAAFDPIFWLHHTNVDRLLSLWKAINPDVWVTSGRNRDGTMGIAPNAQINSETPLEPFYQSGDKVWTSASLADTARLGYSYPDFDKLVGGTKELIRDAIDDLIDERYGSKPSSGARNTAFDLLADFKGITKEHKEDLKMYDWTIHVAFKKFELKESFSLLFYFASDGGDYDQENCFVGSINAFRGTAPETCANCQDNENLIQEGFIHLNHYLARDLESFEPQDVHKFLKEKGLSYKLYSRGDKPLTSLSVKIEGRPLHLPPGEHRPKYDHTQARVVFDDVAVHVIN
Description: Inhibition of mushroom tyrosinase
Usually IC50 stands for the concentration that inhibits the measured activity by half. As to `O=C(NCc1cc(O)c(O)c(O)c1)c1ccc(O)cc1O`, the IC50 amounted to 550 µM. Turning to `O=C(NCc1ccc(O)cc1O)c1cc(O)c(O)c(O)c1`, the half-inhibitory concentration (IC50) is 17 µM. Still for that read-out and setting: to `O=C(NCc1ccc(O)cc1O)c1ccc(O)cc1O` belongs 29 µM.

`O=C(NCc1ccccc1)c1cc(O)cc(O)c1`: the midpoint of inhibition, the IC50, lay at 700 µM.

For `O=C(NCc1ccc(O)cc1)c1ccc(O)c(O)c1`, the IC50 is more than 2000 µM. The compound `O=C(NCc1ccc(O)cc1O)c1ccc(O)c(O)c1` registered a 50% inhibitory concentration (IC50) of 11 µM. What is called Ki is a measure of affinity in units of concentration, obtained from inhibition or displacement. Read a low Ki as a stronger hold on the target. For `O=C(NCc1ccc(O)cc1O)c1cc(O)cc(O)c1`, the IC50 was 2.2 µM and affinity was put at a Ki of 1.3 µM. With `O=C(NCc1cc(O)c(O)c(O)c1)c1cc(O)cc(O)c1`, the 50% inhibitory concentration (IC50) was found to be 705 µM. On the same count and under the same terms, in the case of `O=C(NCc1cc(O)c(O)c(O)c1)c1ccc(O)c(O)c1` it was 280 µM; in that of `O=C(NCc1ccccc1)c1ccccc1`, 1990 µM. Still for that read-out and setting: in the case of `O=C(NCc1ccccc1)c1ccc(O)cc1O` it was 1660 µM; in that of `O=C(NCc1ccc(O)cc1)c1cc(O)c(O)c(O)c1`, 1180 µM. Same read-out and setting: in the case of `O=C(NCc1ccc(O)cc1)c1cc(O)cc(O)c1` it was 710 µM. `O=C(NCc1ccc(O)cc1)c1ccc(O)cc1O` registered a half-maximal inhibitory concentration (IC50) of 1820 µM. Still for that read-out and setting: in the case of `O=C(NCc1ccccc1)c1ccc(O)c(O)c1` it was more than 2000 µM; in that of `O=C(NCc1ccccc1)c1cc(O)c(O)c(O)c1`, 780 µM. The same measure, in the same setting: in the case of `O=C(NCc1cc(O)c(O)c(O)c1)c1cc(O)c(O)c(O)c1` it was 555 µM.
